The subject of assay [1] is α2δ-3 expression in cultured rat atrial myocytes. Particulars: Chu 2003; cited from earlier work.
In the next assay the target is α2δ-2 subunit (Homo sapiens, UniProt Q9NY47). To be noted: Marais et al. 2001; cited from earlier work.
Another assay has as its target α2δ-3 subunit (Homo sapiens, UniProt Q8IZS8). To be noted: Marais et al. 2001; cited from earlier work.
The test system of assay [2] is rat α1B+β1b Ca2+ channel (N-type calcium channel). Put plainly: Whole-cell patch clamp current density of rat α1B+β1b channels with coexpressed α2δ-2 in transfected HEK 293 cells. Type of assay: cell-based. As to the method:
Human embryonic kidney cells, HEK 293 (ATCC# CRL 1573) or HEK 293 tsA 201, were grown in standard DMEM medium supplemented with 4 mM glutamine and 10% fetal bovine serum. The rat α2δ-2 construct was transfected into HEK 293 or HEK 293 tsA 201 cells with equimolar concentration of the subunits α1B (N-type calcium channel) and β1b, using lipofectamine (Gibco/Invitrogen) according to the manufacturer's instructions. pEGFP was included in the transfected cDNA at 3-5 times less the molar concentration to detect transfected cells and to determine the efficiency of transfection. Transfected cells were incubated at 37° C., 5% CO2, for 6-24 hours and then placed at 29° C., 5% CO2.
After an incubation period of 24 to 72 hours, the culture medium was removed and replaced with an external recording solution containing (in mM) 5 BaCl, 129 CsCl, 1 MgCl2, 10 HEPES, 10 glucose, pH 7.4 with CsOH. Whole-cell patch clamp recordings were made with an Axopatch 200B amplifier (Axon Instruments, USA). […] Signals were acquired at 2.02 kHz and analyzed offline using pClamp 8.2 (Axon Instruments, USA) and Origin (OriginLab Corporation, USA) software. […]
Mean current density was recorded for 4 cells transfected with rat α1B+β1b only and for 7 cells that were also cotransfected with rat brain α2δ-2 subunit. […]

Results on 3 molecules are retold here after patent US7294485B2, “Rat calcium channel subunits and related probes, cell lines and methods” (Neuromed Pharmaceuticals Ltd., priority 2003, dated 2007).

α2δ-2 subunit, sequence (Q9NY47 19-1150): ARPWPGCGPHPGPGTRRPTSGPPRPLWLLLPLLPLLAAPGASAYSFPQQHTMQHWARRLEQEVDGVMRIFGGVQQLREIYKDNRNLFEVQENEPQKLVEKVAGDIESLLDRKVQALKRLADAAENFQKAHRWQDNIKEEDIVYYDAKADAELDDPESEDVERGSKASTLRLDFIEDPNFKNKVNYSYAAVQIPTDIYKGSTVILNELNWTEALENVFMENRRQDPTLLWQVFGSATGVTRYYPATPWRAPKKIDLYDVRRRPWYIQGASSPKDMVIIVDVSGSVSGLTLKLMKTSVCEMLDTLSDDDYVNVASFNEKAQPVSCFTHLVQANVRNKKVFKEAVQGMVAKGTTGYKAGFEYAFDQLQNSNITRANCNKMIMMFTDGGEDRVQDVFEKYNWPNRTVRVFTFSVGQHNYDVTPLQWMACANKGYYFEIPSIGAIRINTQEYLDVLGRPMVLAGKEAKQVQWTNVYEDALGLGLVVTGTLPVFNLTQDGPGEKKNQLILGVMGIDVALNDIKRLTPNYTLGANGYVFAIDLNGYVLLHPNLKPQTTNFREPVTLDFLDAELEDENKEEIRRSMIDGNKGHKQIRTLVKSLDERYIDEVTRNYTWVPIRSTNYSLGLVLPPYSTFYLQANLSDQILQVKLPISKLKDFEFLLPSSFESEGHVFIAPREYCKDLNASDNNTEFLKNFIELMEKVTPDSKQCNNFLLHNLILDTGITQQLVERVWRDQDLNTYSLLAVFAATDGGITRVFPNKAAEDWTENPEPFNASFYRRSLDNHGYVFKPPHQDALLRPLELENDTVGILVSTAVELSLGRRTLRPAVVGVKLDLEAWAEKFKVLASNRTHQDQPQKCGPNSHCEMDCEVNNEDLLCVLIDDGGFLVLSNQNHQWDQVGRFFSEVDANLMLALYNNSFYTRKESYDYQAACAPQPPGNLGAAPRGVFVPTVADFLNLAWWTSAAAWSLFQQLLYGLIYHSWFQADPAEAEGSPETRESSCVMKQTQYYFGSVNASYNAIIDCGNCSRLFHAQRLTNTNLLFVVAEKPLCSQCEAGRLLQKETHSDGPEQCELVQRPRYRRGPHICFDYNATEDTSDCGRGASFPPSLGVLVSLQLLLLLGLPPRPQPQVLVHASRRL
α2δ-3 subunit, sequence (Q8IZS8 29-1091): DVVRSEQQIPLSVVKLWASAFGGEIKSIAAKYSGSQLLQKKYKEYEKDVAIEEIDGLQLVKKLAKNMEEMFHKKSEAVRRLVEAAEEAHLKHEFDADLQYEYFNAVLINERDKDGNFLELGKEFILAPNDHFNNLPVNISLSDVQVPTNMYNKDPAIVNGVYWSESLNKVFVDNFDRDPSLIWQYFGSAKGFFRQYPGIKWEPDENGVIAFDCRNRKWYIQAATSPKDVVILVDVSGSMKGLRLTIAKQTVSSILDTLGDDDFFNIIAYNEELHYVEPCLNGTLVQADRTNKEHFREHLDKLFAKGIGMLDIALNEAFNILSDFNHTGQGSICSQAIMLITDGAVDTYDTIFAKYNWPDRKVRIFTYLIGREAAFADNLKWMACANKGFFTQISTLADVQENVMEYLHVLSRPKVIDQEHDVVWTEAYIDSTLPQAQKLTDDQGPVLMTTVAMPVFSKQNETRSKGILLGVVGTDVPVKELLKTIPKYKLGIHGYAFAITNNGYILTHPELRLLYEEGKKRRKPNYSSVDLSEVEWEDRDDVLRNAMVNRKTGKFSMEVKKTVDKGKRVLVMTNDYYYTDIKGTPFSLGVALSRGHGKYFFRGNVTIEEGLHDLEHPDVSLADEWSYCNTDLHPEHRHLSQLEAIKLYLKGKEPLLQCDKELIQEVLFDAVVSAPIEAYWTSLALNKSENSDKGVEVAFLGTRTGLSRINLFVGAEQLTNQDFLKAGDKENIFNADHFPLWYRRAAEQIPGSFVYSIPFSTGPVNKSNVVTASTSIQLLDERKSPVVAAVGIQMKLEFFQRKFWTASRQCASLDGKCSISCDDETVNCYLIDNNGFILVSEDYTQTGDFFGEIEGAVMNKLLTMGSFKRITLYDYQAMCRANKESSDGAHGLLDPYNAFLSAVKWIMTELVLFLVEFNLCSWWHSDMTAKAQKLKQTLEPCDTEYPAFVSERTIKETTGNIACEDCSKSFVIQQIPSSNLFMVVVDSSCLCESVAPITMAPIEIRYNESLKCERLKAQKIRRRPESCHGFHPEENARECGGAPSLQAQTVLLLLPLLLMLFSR

Regarding “IGF-1: IGF-1, reported to stimulate α2δ-3 expression in cultured rat atrial myocytes”, in assay [1], the “effect on α2δ-3 expression” value is “stimulates”. Consider `NCC1(CC(=O)O)CCCCC1` [gabapentin], for which the “binding to α2δ-2 subunit” value at α2δ-2 subunit is “binds”. In addition, the “binding to α2δ-3 subunit” value at α2δ-3 subunit was “not”.

B1: rat brain α2δ-2 subunit: α2δ-2 calcium channel subunit present in rat brain, SEQ. ID. NO:3, 1,150 amino acids, expressed from cDNA (protein, listed as Rattus norvegicus)
chain: MAVPARTCGASWPGPVRTARPWPGRGPRPCPDPRGPASGPARPLLLLLPPLLLLPLLTAPGASAYSFPQQHTMQHWARRLEQEIDGVMRIFGGVQQLREIYKDNRNLFDVQENEPQKLVEKVAGDIESLLDRKVQALKRLADAAENFQKAHRWQDNIKEEDIMYYDAKADAELDDPESEDMERGSKTSALRLDFIEEPNFKNKVNYSYTAVQIPTDIYKGSTVILNELNWTEALENVFIENRRQDPTLLWQVFGSATGVTRYYPATPWRAPKKIDLYDVRRRPWYIQGASSPKDMVIIVDVSGSVSGLTLKLMKTSVCEMLDTLSDDDYVNVASFNEKAQPVSCFTHLVQANVRNKKVFKEAVQGMVAKGTTGYKAGFEYAFDQLQNSNITRANCNKMIMMFTDGGEDRVQDVFEKYNWPNRTVRVFTFSVGQHNYDVTPLQWMACTNKGYYFEIPSIGAIRINTQEYLDVLGRPMVLAGKDAKQVQWTNVYEDALGLGLVVTGTLPVFNLTQDGPGEKKNQLILGVMGIDVALNDIKRLTPNYTLGANGYVFAIDLNGYVLLHPNLKPQTTNFREPVTLDFLDAELEDENKEEIRRSMIDEDKGHKQIRTLVKSLDERYIDEVIRNYTWVPIRSTNYSLGLVLPPYSTYYLQANLSDQILQVKYFEFLLPSSFESEGHVFIAPREYCKDLNASDNNTEFLKNFIELMEKVTPDSKQCNNFLLHNLILDTGITQQLVERVWRDQDLNTYSLLAVFAATDGAVTRVFPNKAAEDWTENPEPFNASFYRRSLDNRGYIFKPPHQDSLLRPLELENDTVGVLVSTAVELSLGRRTLRPAVVGVKLDLEAWAEKFKVLASNRTHQDQPQKQCGPSSHCEMDCEVNNEDLLCVLIDDGGFLVLSNQNHQWDQVGRFFSEVDANLMLALYNNSFYTRKESYDYQAACAPQPPGNLGAAPRGVFVPTIADFLNLAWWTSAAAWSLFQQLLYGLIYHSWFQADPAEAEGSPETRESSCVMKQTQYYFGSVNASYNAIIDCGNCSRLFHAQRLTNTNLLFVVAEKPLCSQCEVGRLLQKETHCPADGPEQCELVQRPRYRRGPHICFDYNATEDTSDCGRGTSFPPSLGVLVSLQLLLLLGLPPRPQPQIHSFAASRRL
As to B1, the “mean current density (Ipeak/cell capacitance)” value in assay [2] (rat α1B+β1b coexpressed with rat brain α2δ-2 in HEK 293 cells, test potential +20 mV from holding −80 mV, 7 cells, mean±S.E.M, without α2δ-2: −7.2±2.3) was −30.0±4.1 pA/pF. Moreover, the “increase of rat α1B+β1b current density” value in assay [2] (with versus without coexpressed α2δ-2, P=0.01) was approximately 4 fold.
